From patent US20230103965A1, “NOVEL ACTIVATORS OF THE LIPIDATING TRANSPORTER ATP BINDING CASSETTE PROTEIN TYPE 1 (AB-CA1) AND THERAPEUTIC USES THEREOF” (RAMOT AT TEL-AVIV UNIVERSITY LTD., priority 2020, published 2023)

Target: T1, ECD2 of ABCA1 (Homo sapiens, UniProt O95477)
T1 construct: The proteins used in these experiments were Extra-Cellular Domain 1 (ECD1) of ABCA1 and Extra-Cellular Domain 2 (ECD2); purchased Biomatick
Assay: Microscale thermophoresis (MST) binding to ECD2
Description: Microscale thermophoresis (MST) measurements. MST measurements of the binding of the HTS hits to the extracellular domain (ECD) of ABCA1 were performed by two complimentary methods utilizing either fluorescently labeled proteins or the endogenous fluorescence of unlabeled proteins. This was pursued as follows:
(i) MST utilizing labeled proteins: The proteins used in these experiments were Extra-Cellular Domain 1 (ECD1) of ABCA1 and Extra-Cellular Domain 2 (ECD2) which were provided by the manufacturer (Biomatick) at a concentration of 7.1 μM. The buffers of protein samples were exchanged on a desalting PD-10 column to MST labelling buffer (Nanotemper Technologies, NT.115). […] The concentrations of the labeled protein samples solutions were determined by Spectrophotometer (Carey 60) at 280 nm and 650 nm and adjusted to a final concentration 7.1 μM, aliquoted in 30 μl and stored at −80° C. for further use. Protein-compound interactions were analyzed by microscale thermophoresis. […] All dissociation constants (KD) were calculated to a binding model assuming a 1:1 stoichiometry per binding partner. […]
These experiments employed the MST ligand binding to protein assay (FIG. 13 and EXAMPLE 1). […] Two complementary MST tests were performed, in which either the proteins were labeled with a fluorescence moiety or the endogenous fluorescence of the unlabeled proteins was monitored).

T1 sequence (O95477 1372-1656 limits assumed): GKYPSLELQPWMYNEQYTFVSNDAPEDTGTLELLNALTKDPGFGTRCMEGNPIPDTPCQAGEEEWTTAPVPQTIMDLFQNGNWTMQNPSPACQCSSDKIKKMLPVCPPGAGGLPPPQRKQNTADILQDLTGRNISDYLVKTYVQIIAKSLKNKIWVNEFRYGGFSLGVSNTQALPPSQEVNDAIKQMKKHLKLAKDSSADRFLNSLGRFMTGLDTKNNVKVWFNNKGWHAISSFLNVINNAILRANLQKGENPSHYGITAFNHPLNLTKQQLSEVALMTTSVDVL

MST binding to ECD2 | SMILES
do not bind at all | Cc1nn(CC(=O)c2ccc(Br)s2)c(C)c1[N+](=O)[O-] [Hit #3]
do not bind at all | CC(C)(C)C(=O)COC(=O)c1ccccc1SCc1cc(-c2ccco2)on1 [Hit #4]
